From patent US11779559B2, “Compositions for treating fungal and bacterial biofilms and methods of using the same” (priority 2017, dated 2023)

Columns and labels:
[1] = tested on: C. albicans; assay: Disruption biofilm assay, fungal; type: cell-based, Candida albicans; conditions: disruption assay; C. albicans; 1% amino acid (unless specifically noted); p≤0.001
Experimental: (§1) Two types of biofilm assays were performed: a sustained inhibition assay and a disruption assay. The sustained inhibition assay assesses the compound's ability to prevent biofilm development throughout all stages of biofilm formation, while the disruption assay assesses the compound's ability to break up an existing mature biofilm. These assays are described in detail in the following article: Lohse, M. B., Gulati, M., Valle Arevalo, A., Fishburn, A., Johnson, A. D., and Nobile, C. […] Antimicrobial Agents and Chemotherapy 61: e02749-16.
(§2) All bacterial biofilm solutions were prepared in Trypic Soy Broth (TSB), supplemented with 1% glucose (henceforth referred to as TSB-G). All subsequent procedures were performed in a manner that maintained sterility. A solution of each amino acid to be tested was prepared in weight to volume concentrations ranging from 0.1-5.0%. Amino acids were also tested in combinations. Compound solutions were homogenized with gentle agitation in the dark (4° C., 24 hours) before use.
(§3) Fungal strains were streaked on Yeast Peptone Dextrose (YPD) agar plates and incubated at 30° C. for 48 hours. A single colony from each strain to be tested was inoculated into YPD broth and grown for 12 hours, at 30° C., shaking at 225 rpm. […] The cells were allowed to adhere to the plate for 90 minutes at 37° C. with shaking (350 rpm). […] The plate was further incubated for 24 hours at 37° C. with shaking (350 rpm). Media was carefully aspirated and the biofilm was measured by optical density at 600 nm. […] The cells were allowed to adhere to the plate for 90 minutes at 37° C. with shaking (350 rpm). […] The plate was further incubated for 24 hours at 37° C. with shaking (350 rpm). […] The plate was further incubated for 24 hours at 37° C. with shaking (350 rpm). Media was carefully aspirated and the biofilm was measured by optical density at 600 nm.

[2] = tested on: fungal and bacterial biofilms; assay: Biofilm assays (sustained inhibition and disruption), fungal and bacterial biofilms; type: cell-based; conditions: single component on its own
Experimental: (§4) Two types of biofilm assays were performed: a sustained inhibition assay and a disruption assay. The sustained inhibition assay assesses the compound's ability to prevent biofilm development throughout all stages of biofilm formation, while the disruption assay assesses the compound's ability to break up an existing mature biofilm. These assays are described in detail in the following article: Lohse, M. B., Gulati, M., Valle Arevalo, A., Fishburn, A., Johnson, A. D., and Nobile, C. J. (2017) Assessment and optimizations of Candida albicans in vitro biofilm assays. Antimicrobial Agents and Chemotherapy 61: e02749-16.
as §2, with “For fungal biofilm assays, all solutions were prepared in RPMI 1640 medium. All bacterial” for “All bacterial”
All biofilm assays were performed using 384-well non-tissue culture treated polystyrene plates. The fungal species tested are as follows: Candida albicans, Candida guilhermondii, Candida parapsilosis, Candida glabrata, Candida tropicalis, Candida dubliniensis, and Candida auris. The bacterial species tested are as follows: Staphylococcus aureus (standard wild type and methicillin-resistant strain USA300), Escherichia coli, Pseudomonas aeruginosa and Staphylococcus epidermidis.
Fungal strains were streaked on Yeast Peptone Dextrose (YPD) agar plates and incubated at 30° C. for 48 hours. A single colony from each strain to be tested was inoculated into YPD broth and grown for 12 hours, at 30° C., shaking at 225 rpm. For the fungal biofilm inhibition assay, 1 μl of saturated overnight cell culture was added to either 80 μL of RPMI-1640 or RPMI-1640 supplemented with the amino acid compound solution to be tested, in a 384-well plate. The cells were allowed to adhere to the plate for 90 minutes at 37° C. with shaking (350 rpm). Loosely bound cells were washed once with phosphate buffered saline (PBS) and 80 ul of RPMI-1640, or RPMI-1640 supplemented with the amino acid compound solution was added to the plate. The plate was further incubated for 24 hours at 37° C. with shaking (350 rpm). Media was carefully aspirated and the biofilm was measured by optical density at 600 nm. Twelve replicates were performed for each tested condition and the reported values are normalized to the control (RPMI-1640 media only). For the fungal biofilm disruption assays, 80 μL of RPMI-1640 was added to the plate, along with 1 μL of overnight cell culture. The cells were allowed to adhere to the plate for 90 minutes at 37° C. with shaking (350 rpm). Loosely bound cells were washed once with PBS and 80 μL of RPMI-1640 was added to the plate. The plate was further incubated for 24 hours at 37° C. with shaking (350 rpm). Media was carefully aspirated from the mature biofilm and 80 μL of RPMI-1640, or RPMI-1640 supplemented with the amino acid compound solution to be tested, was gently added to the plate. The plate was further incubated for 24 hours at 37° C. with shaking (350 rpm). Media was carefully aspirated and the biofilm was measured by optical density at 600 nm. Twelve replicates were performed for each tested condition and the reported values are normalized to the control (RPMI-1640 media only).
Bacterial strains were streaked on Blood Agar plates (5% sheep blood in Tryptic Soy Agar) and incubated at 37° C. for 24 hours. A single colony from each strain to be tested was inoculated in a TSB broth and grown for 12 hours, at 37° C. with shaking (225 rpm).

[3] = tested on: C. albicans; assay: Sustained inhibition biofilm assay, fungal; type: cell-based, Candida albicans; conditions: sustained inhibition assay; C. albicans; 1% amino acid (unless specifically noted); p≤0.001
Experimental: as §1, §2, §3

[4] = tested on: bacteria (S. aureus) biofilm and fungal (C. albicans) biofilm; assay: Disruption biofilm assay, bacterial and fungal taken together; type: cell-based; conditions: disruption assay; bacterial and fungal biofilm; 1% amino acid (unless specifically noted); p≤0.001
Experimental: as §4
as §2, with “For fungal biofilm assays, all solutions were prepared in RPMI 1640 medium. All bacterial” for “All bacterial”
Fungal strains were streaked on Yeast Peptone Dextrose (YPD) agar plates and incubated at 30° C. for 48 hours. A single colony from each strain to be tested was inoculated into YPD broth and grown for 12 hours, at 30° C., shaking at 225 rpm. For the fungal biofilm inhibition assay, 1 μl of saturated overnight cell culture was added to either 80 μL of RPMI-1640 or RPMI-1640 supplemented with the amino acid compound solution to be tested, in a 384-well plate. […] Media was carefully aspirated and the biofilm was measured by optical density at 600 nm. […] Media was carefully aspirated and the biofilm was measured by optical density at 600 nm. […]
Bacterial strains were streaked on Blood Agar plates (5% sheep blood in Tryptic Soy Agar) and incubated at 37° C. for 24 hours. […] Media was carefully aspirated and the biofilm was measured by optical density at 600 nm. […]

N[C@@H](CC(=O)O)C(=O)O [Aspartic Acid, L-aspartic acid]
Reduce F Biofilm [1]: ●● (two dots [ie. ••] signifies major effect (greater than about 30% change)) | Effect on biofilms [2]: very active against biofilms | Reduce F Biofilm [3]: ●● (two dots [ie. ••] signifies major effect (greater than about 30% change)) | Reduce Both [4]: ●● (two dots [ie. ••] signifies major effect (greater than about 30% change))
